The record followed here is patent US9428499B2, “Heterocyclyl compounds as MEK inhibitors” (LUPIN LIMITED, priority 2012, dated 2016).

This test has as its system ERK phosphorylation. In words: Analysis of ERK phosphorylation (Alphascreen SureFire Phospho-ERK 1/2). The format is cell-based, human and mouse. The following applies: cells treated for 1 h; human melanoma cells, human and mouse colon cancer cells; read-out: Minimum concentration (nM) required for ≧80% inhibition of pERK. On the procedure: This assay was carried out with human melanoma cells, human and mouse colon cancer cells. Cells were treated for 1 h with various concentrations of test compounds. ERK phosphorylation analysis was performed using the Alphascreen SureFire Phospho-ERK 1/2 Kit (Perkin Elmer), by following the manufacturer's instructions. % inhibition of ERK phosphorylation was determined as: 100−{(RFU test−RFU lysis buffer control)/(RFU vehicle treated control−RFU lysis buffer control)}×100. Percentage inhibition at concentrations of 0.01 nM, 0.03 nM, 0.1-0.9 nM, 1 nM to 3 nM, 4-100 nM, and >100 nM, for the stated examples is setworth here. The percentage inhibition at the above depicted concentrations for the compounds stated are given in the following groups.
Background: Bead proximity is the source of the signal in Alpha formats.

As for `Cc1c(=O)n(C)c(Nc2ccc(I)cc2F)c2c(=O)n(C3CC3)c(=O)n(-c3cccc(CCC(=O)NC4CC4)c3)c12` [Compound 40, N-cyclopropyl-3-(3-(3-cyclopropyl-5-((2-fluoro-4-iodophenyl)amino)-6,8-dimethyl-2,4,7-trioxo-3,4,6,7-tetrahydropyrido[4,3-d]pyrimidin-1(2H)-yl)phenyl)propanamide], the IC80 lay within 4 to 100 nM.
In the case of `Cc1c(=O)n(C)c(Nc2ccc(I)cc2F)c2c(=O)n(C)c(=O)n(-c3cccc(OCC(=O)NC4CC4)c3)c12` [Compound 41, N-cyclopropyl-2-(3-(5-((2-fluoro-4-iodophenyl)amino)-3,6,8-trimethyl-2,4,7-trioxo-3,4,6,7-tetrahydropyrido[4,3-d]pyrimidin-1(2H)-yl)phenoxy)acetamide] it was 0.1 to 0.9 nM; in that of `Cc1c(=O)n(C)c(Nc2ccc(I)cc2F)c2c(=O)n(C)c(=O)n(-c3cccc(CC(N)=O)c3)c12` [Compound 42, 2-(3-(5-((2-fluoro-4-iodophenyl)amino)-3,6,8-trimethyl-2,4,7-trioxo-3,4,6,7-tetrahydropyrido[4,3-d]pyrimidin-1(2H)-yl)phenyl)acetamide], 0.1 to 0.9 nM.
In the case of `Cc1c(=O)n(C)c(Nc2ccc(I)cc2F)c2c(=O)n(C)c(=O)n(-c3cccc(C(C)(C)C(N)=O)c3)c12` [Compound 43, 2-(3-(5-((2-fluoro-4-iodophenyl)amino)-3,6,8-trimethyl-2,4,7-trioxo-3,4,6,7-tetra hydropyrido[4,3-d]pyrimidin-1(2H)-yl)phenyl)-2-methylpropanamide] it was 0.1 to 0.9 nM.
In the case of `Cc1c(=O)n(C)c(Nc2ccc(I)cc2F)c2c(=O)n(C)c(=O)n(-c3cccc(CC(=O)N(C)C)c3)c12` [Compound 44, 2-(3-(5-((2-fluoro-4-iodophenyl)amino)-3,6,8-trimethyl-2,4,7-trioxo-3,4,6,7-tetra hydropyrido[4,3-d]pyrimidin-1(2H)-yl)phenyl)-N,N-dimethylacetamide], the IC80 was in the range of 0.1 to 0.9 nM.
In the case of `Cc1c(=O)n(C)c(Nc2ccc(I)cc2F)c2c(=O)n(C)c(=O)n(-c3cccc(C(F)(F)C(N)=O)c3)c12` [Compound 45, 2,2-difluoro-2-(3-(5-((2-fluoro-4-iodophenyl)amino)-3,6,8-trimethyl-2,4,7-trioxo-3,4,6,7-tetrahydropyrido[4,3-d]pyrimidin-1(2H)-yl)phenyl)acetamide] it was 1 to 3 nM.
The same measure for `Cc1c(=O)n(C)c(Nc2ccc(I)cc2F)c2c(=O)n(C)c(=O)n(-c3cccc(CC(=O)N4CCC4)c3)c12` [Compound 46, 1-(3-(2-(azetidin-1-yl)-2-oxoethyl)phenyl)-5-((2-fluoro-4-iodophenyl)amino)-3,6,8-trimethylpyrido[4,3-d]pyrimidine-2,4,7(1H,3H,6H)-trione]: 0.01 nM; for `Cc1c(=O)n(C)c(Nc2ccc(I)cc2F)c2c(=O)n(C)c(=O)n(-c3cccc(C(O)C(N)=O)c3)c12` (stereo not drawn) [Compound 47, 2-(3-(5-((2-fluoro-4-iodophenyl)amino)-3,6,8-trimethyl-2,4,7-trioxo-3,4,6,7-tetrahydropyrido[4,3-d]pyrimidin-1(2H)-yl)phenyl)-2-hydroxyacetamide]: 0.1 to 0.9 nM; for `Cc1c(=O)n(C)c(Nc2ccc(I)cc2F)c2c(=O)n(C)c(=O)n(-c3cccc(CC(=O)N4CC(O)C4)c3)c12` [Compound 48, 5-((2-fluoro-4-iodophenyl)amino)-1-(3-(2-(3-hydroxyazetidin-1-yl)-2-oxoethyl)phenyl)-3,6,8-trimethylpyrido[4,3-d]pyrimidine-2,4,7(1H,3H,6H)-trione]: 1 to 3 nM.
In the case of `Cc1c(=O)n(C)c(Nc2ccc(I)cc2F)c2c(=O)n(C)c(=O)n(-c3cccc(C(=O)NC4COC4)c3)c12` [Compound 49, 3-(5-((2-fluoro-4-iodophenyl)amino)-3,6,8-trimethyl-2,4,7-trioxo-3,4,6,7-tetra hydropyrido[4,3-d]pyrimidin-1(2H)-yl)-N-(oxetan-3-yl)benzamide] it was 0.01 nM; in that of `Cc1c(=O)n(C)c(Nc2ccc(I)cc2F)c2c(=O)n(C)c(=O)n(-c3cccc(CC(=O)NC4COC4)c3)c12` [Compound 50, 2-(3-(5-((2-fluoro-4-iodophenyl)amino)-3,6,8-trimethyl-2,4,7-trioxo-3,4,6,7-tetrahydropyrido[4,3-d]pyrimidin-1(2H)-yl)phenyl)-N-(oxetan-3-yl)acetamide], 4 to 100 nM; in that of `Cc1c(=O)n(C)c(Nc2ccc(I)cc2F)c2c(=O)n(C)c(=O)n(-c3cccc(C(=O)NC4CCOC4)c3)c12` (stereo not drawn) [Compound 51, 3-(5-((2-fluoro-4-iodophenyl)amino)-3,6,8-trimethyl-2,4,7-trioxo-3,4,6,7-tetrahydropyrido[4,3-d]pyrimidin-1(2H)-yl)-N-(tetrahydrofuran-3-yl)benzamide], 0.01 nM.
For `Cc1c(=O)n(C)c(Nc2ccc(I)cc2F)c2c(=O)n(C)c(=O)n(-c3cccc(C(=O)NC4CCOCC4)c3)c12` [Compound 52, 3-(5-((2-fluoro-4-iodophenyl)amino)-3,6,8-trimethyl-2,4,7-trioxo-3,4,6,7-tetrahydropyrido[4,3-d]pyrimidin-1(2H)-yl)-N-(tetrahydro-2H-pyran-4-yl)benzamide], the IC80 fell in the range of 4 to 100 nM.
Consider `Cc1c(=O)n(C)c(Nc2ccc(I)cc2F)c2c(=O)n(C)c(=O)n(-c3cccc(C(=O)NC4(CO)CC4)c3)c12` [Compound 53, 3-(5-((2-fluoro-4-iodophenyl)amino)-3,6,8-trimethyl-2,4,7-trioxo-3,4,6,7-tetrahydropyrido[4,3-d]pyrimidin-1(2H)-yl)-N-(1-(hydroxymethyl)cyclopropyl)benzamide], for which the IC80 is 4 to 100 nM.
In the case of `Cc1c(=O)n(C)c(Nc2ccc(I)cc2F)c2c(=O)n(C)c(=O)n(-c3cccc(C(=O)NC4CC4)c3)c12` [Compound 54, N-cyclopropyl-3-(5-((2-fluoro-4-iodophenyl)amino)-3,6,8-trimethyl-2,4,7-trioxo-3,4,6,7-tetrahydropyrido[4,3-d]pyrimidin-1(2H)-yl)benzamide] it was 1 to 3 nM.
In the case of `Cc1c(=O)n(C)c(Nc2ccc(I)cc2F)c2c(=O)n(CCO)c(=O)n(-c3cccc(C(=O)NC4CC4)c3)c12` [Compound 55, N-cyclopropyl-3-(5-((2-fluoro-4-iodophenyl)amino)-3-(2-hydroxyethyl)-6,8-dimethyl-2,4,7-trioxo-3,4,6,7-tetrahydropyrido[4,3-d]pyrimidin-1(2H)-yl)benzamide] it was 4 to 100 nM.
With `Cc1c(=O)n(C)c(Nc2ccc(I)cc2F)c2c(=O)n(C)c(=O)n(-c3cccc(C(=O)N4CCC4)c3)c12` [Compound 56, 1-(3-(azetidine-1-carbonyl)phenyl)-5-((2-fluoro-4-iodophenyl)amino)-3,6,8-trimethylpyrido[4,3-d]pyrimidine-2,4,7(1H,3H,6H)-trione], the IC80 fell in the range of 1 to 3 nM.
In the case of `Cc1c(=O)n(C)c(Nc2ccc(I)cc2F)c2c(=O)n(C)c(=O)n(-c3cccc(CC(=O)NC4CC4)c3)c12` [Compound 58, N-cyclopropyl-2-(3-(5-((2-fluoro-4-iodophenyl)amino)-3,6,8-trimethyl-2,4,7-trioxo-3,4,6,7-tetrahydropyrido[4,3-d]pyrimidin-1(2H)-yl)phenyl)acetamide] it was 1 to 3 nM.
